# Patent US10517889B2, “Modulators of SMAD7 expression” (Ionis Pharmaceuticals, Inc., priority 2017, dated 2019)
# Strand notation (5' to 3'): a small letter for the sugar, then the base; units joined by * are phosphorothioate-linked, units joined directly phosphodiester-linked; [ ] holds rarer units or linkages, { } end groups; capitals alone tell only the bases. k = constrained ethyl (cEt); [5mC] = 5-methylcytosine; d = 2'-deoxy (DNA)
# Tested on: human SMAD7 mRNA
# Test: Antisense inhibition of human SMAD7 mRNA expression in Hep3B cells by 3-10-3 cEt gapmers, 10,000 nM, electroporation (Example 2)
# Format: cell-based
# Conditions: Hep3B cells, 10,000 nM antisense oligonucleotide, electroporation, approximately 24 hours, RT-PCR primer probe set RTS5062, relative to untreated control cells
# How it was run: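 Percent inhibition of SMAD7 mRNA, relative to untreated cells, after ~24 h exposure of electroporated Hep3B cells to 10,000 nM cEt gapmer; levels by qRT-PCR, corrected for total RNA.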
row,Substance,% Inhibition [%]
1,800032 (kG*kA*kA*dT*dT*d[5mC]*d[5mC]*d[5mC]*d[5mC]*dG*d[5mC]*d[5mC]*dA*kT*kT*kT; antisense) [compound 800032],0

# Same assay, conditions: Hep3B cells, electroporation with 10,000 nM antisense oligonucleotide, approximately 24 hours, RTS5062, percent inhibition of SMAD7 mRNA relative to untreated control cells
row,Substance,% Inhibition [%]
1,799827 (antisense kA*kA*k[5mC]*dT*dA*d[5mC]*dA*dA*d[5mC]*d[5mC]*dT*dT*dT*kT*kT*kA) [compound 799827],26
2,799806 (antisense kG*kA*kG*dG*dA*dG*d[5mC]*dG*dA*dG*dA*dA*dG*kA*kG*kT) [compound 799806],6

# Same assay, conditions: Hep3B cells, electroporation with 10,000 nM antisense oligonucleotide, approximately 24 hours, SMAD7 mRNA by RT-PCR (RTS5062), relative to untreated control cells
row,Substance,% Inhibition [%]
1,830020 (antisense kG*kA*kA*dA*dG*dG*d[5mC]*d[5mC]*d[5mC]*dA*dA*d[5mC]*dA*kG*k[5mC]*k[5mC]) [compound 830020],23
2,830127 (antisense k[5mC]*k[5mC]*kT*d[5mC]*d[5mC]*dG*dA*dG*dG*d[5mC]*dA*d[5mC]*d[5mC]*kA*k[5mC]*kA) [compound 830127],62
3,799448 (antisense kG*kT*kA*dA*dA*dA*dT*dG*dA*dA*dT*dG*dA*k[5mC]*kT*kG) [compound 799448],41
4,798697 (antisense kA*k[5mC]*k[5mC]*dT*d[5mC]*d[5mC]*d[5mC]*d[5mC]*d[5mC]*dT*dG*d[5mC]*dG*k[5mC]*k[5mC]*k[5mC]) [compound 798697],23
5,830152 (antisense k[5mC]*k[5mC]*k[5mC]*dG*dG*dA*dG*dA*dG*dG*dA*dA*dG*k[5mC]*k[5mC]*kT) [compound 830152],23
6,799882 (kT*kT*kT*dG*dA*dA*d[5mC]*dA*dT*dT*dT*dA*d[5mC]*kT*kG*k[5mC]; antisense) [compound 799882],41
7,799371 (antisense k[5mC]*k[5mC]*k[5mC]*dT*dT*dT*d[5mC]*d[5mC]*dA*dT*dT*dA*dT*kT*k[5mC]*k[5mC]) [compound 799371],28
8,830068 (kG*kT*kG*dA*dA*dA*dT*dG*dG*dT*dG*d[5mC]*dT*k[5mC]*kT*kG; antisense) [compound 830068],39
9,800099 (antisense kT*kG*k[5mC]*dA*dA*dA*dG*dG*dG*dA*d[5mC]*d[5mC]*d[5mC]*kT*kT*kA) [compound 800099],6
10,799372 (antisense k[5mC]*k[5mC]*k[5mC]*dA*dT*d[5mC]*dT*dA*dT*d[5mC]*dG*dA*dA*kT*k[5mC]*kA) [compound 799372],67
11,798666 (k[5mC]*kA*kT*dG*d[5mC]*dG*d[5mC]*d[5mC]*dA*dG*dT*d[5mC]*dT*k[5mC]*k[5mC]*k[5mC]; antisense) [compound 798666],33
12,772587 (kA*kT*k[5mC]*d[5mC]*d[5mC]*d[5mC]*dA*dG*dG*d[5mC]*dT*d[5mC]*d[5mC]*kA*kG*kA; antisense) [compound 772587],39
13,799963 (antisense kA*kG*k[5mC]*d[5mC]*dA*dT*dG*dG*d[5mC]*dA*dG*dA*dA*k[5mC]*k[5mC]*k[5mC]) [compound 799963],6
14,799487 (antisense kA*kA*kA*d[5mC]*dA*dT*dA*dA*dT*dG*dA*d[5mC]*dT*kT*kA*kT) [compound 799487],0

# Same assay, conditions: Hep3B cells, electroporation with 10,000 nM antisense oligonucleotide, approximately 24 hours, primer probe set RTS5062, relative to untreated control cells
Substance,% inhibition of SMAD7 mRNA expression [%],% Inhibition [%]
799229 (kA*kA*k[5mC]*dA*d[5mC]*d[5mC]*d[5mC]*dA*dT*dA*dG*dA*dA*kA*kA*kA; antisense) [compound 799229],22,
799242 (k[5mC]*kG*kT*dG*dA*dT*dT*d[5mC]*dT*d[5mC]*d[5mC]*dG*dT*kA*kT*kT; antisense) [compound 799242],0,
798732 (antisense kG*kG*kA*dT*dG*dG*dT*dG*dG*dT*dG*dA*d[5mC]*k[5mC]*kT*kT) [compound 798732],51,
799110 (antisense kA*kG*kG*d[5mC]*dA*dG*dT*dG*d[5mC]*dT*dG*dA*dG*k[5mC]*kT*kG) [compound 799110],33,
799462 (antisense kA*kA*kG*d[5mC]*dA*d[5mC]*dT*dA*dG*dG*dT*dT*d[5mC]*kT*kG*k[5mC]) [compound 799462],43,
798994 (antisense kA*k[5mC]*kA*d[5mC]*dA*d[5mC]*dA*d[5mC]*dT*d[5mC]*d[5mC]*dT*dG*kA*k[5mC]*kA) [compound 798994],,0
799405 (antisense k[5mC]*kT*kG*dG*dG*dA*dA*d[5mC]*dA*dT*dT*dT*dA*k[5mC]*k[5mC]*k[5mC]) [compound 799405],28,
799267 (antisense kG*kT*kT*d[5mC]*dG*dG*d[5mC]*d[5mC]*dT*dT*d[5mC]*d[5mC]*dA*kT*k[5mC]*k[5mC]) [compound 799267],62,
799324 (antisense kT*k[5mC]*k[5mC]*d[5mC]*dA*dG*dG*dA*dG*dG*dG*dT*dA*kT*kG*k[5mC]) [compound 799324],6,

# Same assay, conditions: Hep3B cells, electroporation, 10,000 nM antisense oligonucleotide, approximately 24 hours, RTS5062, relative to untreated control cells
row,Substance,% inhibition of SMAD7 mRNA expression [%]
1,799740 (antisense kT*kT*kA*dA*dA*dT*dA*dA*d[5mC]*dT*dG*dT*d[5mC]*k[5mC]*kT*k[5mC]) [compound 799740],48
2,799659 (antisense kA*kA*kA*dT*dA*dA*d[5mC]*dT*dA*d[5mC]*dA*dA*dG*kT*kG*kG) [compound 799659],57
3,799519 (antisense kA*kA*k[5mC]*dT*dT*dA*dA*dG*dT*dA*dG*dA*dG*k[5mC]*kA*kA) [compound 799519],44
4,799306 (antisense kA*kA*kA*d[5mC]*dA*dG*d[5mC]*dA*dT*dG*dA*dA*dA*kG*kA*k[5mC]) [compound 799306],27
5,799715 (antisense k[5mC]*k[5mC]*kT*d[5mC]*dA*dG*dG*dG*d[5mC]*dT*dG*d[5mC]*d[5mC]*kA*k[5mC]*k[5mC]) [compound 799715],32
6,799562 (kG*kA*kA*dG*dA*dG*dG*dA*dG*dA*dG*d[5mC]*d[5mC]*kG*kG*kG; antisense) [compound 799562],39
7,799657 (antisense kT*kA*k[5mC]*dA*dA*dG*dT*dG*dG*dT*dT*dG*d[5mC]*kT*kG*kG) [compound 799657],62

# Same assay, conditions: SMAD7 mRNA, Hep3B cells, 10,000 nM antisense oligonucleotide, electroporation, approximately 24 hours, primer probe set RTS5062, relative to untreated control cells
row,Substance,% Inhibition [%]
1,790874 (k[5mC]*k[5mC]*kG*dG*dA*dA*dG*dT*d[5mC]*dT*dT*dG*dT*kA*kT*kT; antisense) [compound 790874],0
2,790741 (kA*kT*kT*dA*dA*dG*d[5mC]*d[5mC]*d[5mC]*dG*d[5mC]*dT*d[5mC]*kT*k[5mC]*kA; antisense) [compound 790741],30

# Same assay, conditions: SMAD7 mRNA, Hep3B cells, electroporation with 10,000 nM antisense oligonucleotide, approximately 24 hours, primer probe set RTS5062, relative to untreated control cells
row,Substance,% Inhibition [%]
1,829908 (antisense k[5mC]*kT*kA*d[5mC]*d[5mC]*dG*dG*d[5mC]*dT*dG*dT*dT*dG*kA*kA*kG) [compound 829908],1
2,829795 (kT*kG*kA*dT*d[5mC]*dT*dT*d[5mC]*d[5mC]*d[5mC]*dG*dT*dA*kA*kG*kA; antisense) [compound 829795],34
3,829803 (kA*kG*kT*dT*d[5mC]*dG*d[5mC]*dA*dG*dA*dG*dT*d[5mC]*kG*kG*k[5mC]; antisense) [compound 829803],35
4,829831 (kG*kA*k[5mC]*d[5mC]*dG*dA*dT*d[5mC]*d[5mC]*d[5mC]*d[5mC]*dA*dG*kG*k[5mC]*kT; antisense) [compound 829831],9
